The source of these data is patent US6136841A, “3-, 8-substituted deuteroporphyrin derivatives, pharmaceutical agents that contain the latter, process for their production and their use in photodynamic therapy and MRI diagnosis” (Schering Aktiengesellschaft, priority 1998, dated 2000).

pIC50: −log10 of the molar value. Where two headings read alike, the source gives them in different places.

The subject of data set [1] is skin. Conditions: in vivo; cited from earlier work.
In data set [2] the test system is human colon carcinoma (HT-29 P9). Briefly: Phototoxicity on a tumor cell culture, xenon lamp irradiation, live-dead coloration (Example 11). The data set is classed as cell-based. Conditions: irradiated with xenon lamp 8.5 k Lux, UV filter, three days; PE = porphyrin unit; 4320 min; read-out: ED50 (concentration at which about half of the cells are no longer vital). On the procedure:
Determination of the phototoxicity (ED50) of compound Ic of WO 94/07894 (I) and of the title compound of Example 1d) (II) on a tumor cell culture.
In 25 ml culture flasks, a cell culture of human colon carcinoma (HT-29 P9) is reproduced for 3 days at 37° C. The cultures are divided into two groups and mixed with solutions of test substances (50 mmol of porphyrin unit (PE)/l, diluted with fetal calf serum) in increasing amounts (0; 1.5; 5; 8.5; 12; 15.5; 19 μmol of PE/l). The samples are irradiated for three days with a xenon lamp (8.5 k Lux, UV filter). The first group daily received 2 irradiations of 30 minutes each at an interval of 4 hours. For the rest of the time, it remains in the dark in an incubator. The second group is not exposed to light and remains in the dark in the incubator for the entire time. On the fourth day, the cell growth is determined by live-dead coloration and counting with the counting chamber.
The table indicates the concentration at which about half of the cells are no longer vital. (I: Example 1c of DE 4232925; II: Title compound of Example 1d)

The subject of data set [3] is human colon carcinomas (HT-29 P9). The data set is classed as in vivo, hairless mouse. On the procedure: Phototoxic effect of the compound [mu-16,16'-(7,12-diethyl-3,8,13,17-tetramethylporphyrin-2,18-diyl]bis[3,6,9-tris(carboxymethyl)-11,14-dioxo-3,6,9,12,13-pentaazahexadecanoato]}(8-)]}digadolinato(2-), disodium (Example 1c of WO 94/07894) on a tumor of a hairless mouse
Intracutaneous human colon carcinomas (HT-29 P9) are implanted in the sides of 15 hairless mice that weigh 24-30 g. The tumors are allowed to grow to a size of 5-10 mm. […] On days 1 and 3, i.v. substance is administered to the anesthetized animals. In this case, the animals of group 1 receive 2×130 μl of 0.9% NaCl solution, and they remain in the dark for the entire time. The animals of the second group receive 2×130 μl of a 100 mmol solution of the title compound, which corresponds to a dose of 2×0.5 mmol/kg of body weight. In each case, 30 minutes after administration, the animals are exposed to the light of a xenon lamp (8.5 k Lux, 1 cm glass as a UV filter) for 45 minutes. They spend the rest of the test time in the dark. 2×130 μl of a 100 mmol solution of test substance is also injected into the animals of the third group. The animals remain in the dark, however, for the duration of the test. On the 6th day after the substance is administered, the animals are sacrificed in ether. The tumor is measured, examined macroscopically, removed and tested histologically. […] In group 1, the range is 6.5×7.7 mm^2 up to 8.6×12.0 mm^2. In the very large tumors, which are fed by numerous blood vessels, small lesions of the skin (possibly bite marks) and in some cases deeper bleeding are evident in the center. […] With the animals of group 2, the following observations are made: […]

As to `Oc1cccc(-c2c3nc(c(-c4cccc(O)c4)c4ccc([nH]4)c(-c4cccc(O)c4)c4nc(c(-c5cccc(O)c5)c5ccc2[nH]5)CC4)C=C3)c1` [m-THPC], in data set [1], the “Duration of skin sensitization” value is listed as ~ 3 weeks.

As to “[mu-16,16'-(7,12-diethyl-3,8,13,17-tetramethylporphyrin-2,18-diyl]bis[3,6,9-tris(carboxymethyl)-11,14-dioxo-3,6,9,12,13-pentaazahexadecanoato]}(8-)]}digadolinato(2-), disodium [Example 1c of WO 94/07894]”, in data set [2], the pIC50 was 5.19. For the same compound, the “Histology: diameter of multifocal central necrosis” value in data set [3] (group 2, 2×0.5 mmol/kg i.v. + light, three non-eroded tumors) is 1.5-2.1 mm. In data set [3] (group 2, substance + light), the “Phototoxic action (overall)” value is “strong phototoxic action”; the “Tumor growth into the muscle layer” value is given as “The tumor did not grow into the muscle layer”; the “Tumor size / tumor growth at end of test” value was “Comparative measurement of tumor size was no longer possible in view of the extent of the destruction of the tumors. Tumor growth took place, if at all, only in the periphery and in deep tumor layers”. Further, the “Histology: diameter of multifocal central necrosis” value in data set [3] (group 3, 2×130 μl of 100 mmol solution, kept in the dark) is 0.1-0.8 mm. For the same compound, in data set [3] (group 3, substance, kept in the dark), the Tumor growth result is reported as “The tumors continue to fluorish”.

As for “{Mu-[(16,16'-[zinc(II)-7,12-diethyl-3,8,13,17-tetramethylporphyrin-2,18-diyl]-bis[3,6,9-tris(carboxymethyl)-11,14-dioxo-3,6,9,12,13-pentaazahexadecanoato]}(8-)]}-digadolinato(2-), disodium [Example 1d]”, the pIC50 in data set [2] is 5.29.
